# Measurements from US11371055B2, “Herbicide resistance genes” (CORTEVA AGRISCIENCE LLC, priority 2005, dated 2022).
# Legend:
# [1] = system: cotton cotyledonary segments; type: cell-based
# Experimental: A dose response study was initiated to test multiple auxin alternatives as a substitute for the use of 2,4-D as a growth regulator in cotton. The alternative auxin tested were 2,4-dichlorprop, dicamba, and picloram. These compounds were tested at 0.2, 2.0, and 20.0 uM concentrations respectively. 2,4-D was used as the control treatment at 0.02 uM concentration. The medium used is the base medium for cotton callus induction (Example 12). Beyond the initial phase of culture, auxin is removed from the medium to prod the tissue toward the regeneration process.
# [2] = system: AAD-12 (v1) gene T1 transformants (Arabidopsis); assay: T1 Arabidopsis postemergence herbicide dose response, % visual injury; type: in vivo, Arabidopsis thaliana
# Experimental: Freshly harvested T1 seed [AAD-12 (v1) gene] was allowed to dry for 7 days at room temperature. T1 seed was sown in 26.5×51-cm germination trays (T.O. Plastics Inc., Clearwater, Minn.), each receiving a 200 mg aliquots of stratified T, seed (˜10,000 seed) that had previously been suspended in 40 ml of 0.1% agarose solution and stored at 4° C. for 2 days to complete dormancy requirements and ensure synchronous seed germination.
# Sunshine Mix LP5 (Sun Gro Horticulture Inc., Bellevue, Wash.) was covered with fine vermiculite and subirrigated with Hoagland's solution until wet, then allowed to gravity drain. Each 40 ml aliquot of stratified seed was sown evenly onto the vermiculite with a pipette and covered with humidity domes (KORD Products, Bramalea. Ontario, Canada) for 4-5 days. Domes were removed 1 day prior to initial transformant selection using glufosinate postemergence spray (selecting for the co-transformed PAT gene).
# Seven days after planting (DAP) and again 11 DAP, T1 plants (cotyledon and 2-4-lf stage, respectively) were sprayed with a 0.2% solution of Liberty herbicide (200 g ai/L glufosinate, Bayer Crop Sciences, Kansas City, Mo.) at a spray volume of 10 ml/tray (703 L/ha) using a DeVilbiss compressed air spray tip to deliver an effective rate of 280 g ai/ha glufosinate per application. Survivors (plants actively growing) were identified 4-7 days after the final spraying and transplanted individually into 3-inch pots prepared with potting media (Metro Mix 360). Transplanted plants were covered with humidity domes for 3-4 days and placed in a 22° C. growth chamber as before or moved to directly to the greenhouse. Domes were subsequently removed and plants reared in the greenhouse (22±5° C., 50±30% RH, 14 h light:10 dark, minimum 500 μE/m^2 s^1 natural+supplemental light) at least 1 day prior to testing for the ability of AAD-12 (v1) (plant optimized gene) to provide phenoxy auxin herbicide resistance.
# T1 plants were then randomly assigned to various rates of 2,4-D. For Arabidopsis, 50 g ae/ha 2,4-D is an effective dose to distinguish sensitive plants from ones with meaningful levels of resistance. Elevated rates were also applied to determine relative levels of resistance (50, 200, 800, or 3200 g ac/ha). Tables 10 and 11 show comparisons drawn to an aryloxyalkanoate herbicide resistance gene (AAD-1 (v3)) previously described in PCT/US2005/014737.
# All auxin herbicide applications were made using the DeVilbiss sprayer as described above to apply 703 L/ha spray volume (0.4 ml solution/3-inch pot) or applied by track sprayer in a 187 L/ha spray volume. 2,4-D used was either technical grade (Sigma, St. Louis, Mo.) dissolved in DMSO and diluted in water (<1% DMSO final concentration) or the commercial dimethylamine salt formulation (456 g ac/L, NuFarm, St Joseph, Mo.). Dichlorprop used was commercial grade formulated as potassium salt of R-dichlorprop (600 g ai/L, AH Marks). As herbicide rates increased beyond 800 g ae/ha, the pH of the spray solution became exceedingly acidic, burning the leaves of young, tender Arabidopsis plants and complicating evaluation of the primary effects of the herbicides. It became standard practice to apply these high rates of herbicides in 200 mM HEPES buffer, pH 7.5.
# The first Arabidopsis transformations were conducted using AAD-12 (v1) (plant optimized gene). T1 transformants were first selected from the background of untransformed seed using a glufosinate selection scheme. Over 300,000 T1 seed were screened and 316 glufosinate resistant plants were identified (PAT gene), equating to a transformation/selection frequency of 0.10% which lies in the normal range of selection frequency of constructs where PAT+Liberty are used for selection. T1 plants selected above were subsequently transplanted to individual pots and sprayed with various rates of commercial aryloxyalkanoate herbicides. […]
# [3] = system: Segregating T2 AAD-12 (v1) plants (pDAB724.01.1.20); assay: Foliar-applied auxinic herbicides on T2 Arabidopsis; type: in vivo, Arabidopsis thaliana; details: Pyridyloxyacetic auxins
# Experimental: The ability of AAD-12 (v1) to provide resistance to other aryloxyalkanoate auxin herbicides in transgenic Arabidopsis was determined by foliar application of various substrates. T2 generation Arabidopsis seed was stratified, and sown into selection trays much like that of Arabidopsis (Example 6.4). A transformed-control line containing PAT and the insect resistance gene Cry1F was planted in a similar manner. Seedlings were transferred to individual 3-inch pots in the greenhouse. All plants were sprayed with the use of a track sprayer set at 187 L/ha. The plants were sprayed with a range of pyridyloxyacetate herbicides: 280-2240 g ae/ha triclopyr (Garlon 3A, Dow AgroSciences) and 280-2240 g ae/ha fluroxypyr (Starane, Dow AgroSciences); and the 2,4-D metabolite resulting from AAD-12 activity, 2,4-dichlorophenol (DCP, Sigma) (at a molar equivalent to 280-2240 g ac/ha of 2,4-D, technical grade DCP was used). All applications were formulated in water. Each treatment was replicated 3-4 times. Plants were evaluated at 3 and 14 days after treatment.
# [4] = 50 g ae/ha 2,4-D postemergence, 2 WAT
# [5] = 200 g ae/ha 2,4-D postemergence, 2 WAT
# [6] = 800 g ae/ha 2,4-D postemergence, 2 WAT
# [7] = 3200 g ae/ha 2,4-D postemergence, 2 WAT
# [8] = 50 g ae/ha R-dichlorprop postemergence
# [9] = 200 g ae/ha R-dichlorprop postemergence
# [10] = 800 g ae/ha R-dichlorprop postemergence
# [11] = 3200 g ae/ha R-dichlorprop postemergence
compound,measurement,setting,value
"O=C(O)COc1ccc(Cl)cc1Cl [2,4-D, 2,4-dichlorophenoxyacetic acid]",effect on cotton callus generation and growth,[1]; highest concentration (20 uM),inhibitory
same,% Injury 20-40% (number of individuals),[2]; [4],0
same,% Injury <20% (number of individuals),[2]; [4],6
same,% Injury >40% (number of individuals),[2]; [4],2
same,% Injury Ave,[2]; [4],16%
same,% Injury 20-40% (number of individuals),[2]; [5],1
same,% Injury <20% (number of individuals),[2]; [5],6
same,% Injury >40% (number of individuals),[2]; [5],1
same,% Injury Ave,[2]; [5],11%
same,% Injury 20-40% (number of individuals),[2]; [6],2
same,% Injury <20% (number of individuals),[2]; [6],5
same,% Injury >40% (number of individuals),[2]; [6],1
same,% Injury Ave,[2]; [6],15%
same,% Injury 20-40% (number of individuals),[2]; [7],0
same,% Injury <20% (number of individuals),[2]; [7],8
same,% Injury >40% (number of individuals),[2]; [7],0
O=C(O)COc1nc(Cl)c(Cl)cc1Cl [triclopyr],Ave % Injury 14DAT,[3]; 280 g ae/ha foliar,0%
same,Ave % Injury 14DAT,[3]; 560 g ae/ha foliar,3%
same,Ave % Injury 14DAT,[3]; 1120 g ae/ha foliar,0%
same,Ave % Injury 14DAT,[3]; 2240 g ae/ha foliar,3%
"C[C@@H](Oc1ccc(Cl)cc1Cl)C(=O)O [(R)-dichlorprop, R-2,4-dichlorophenoxypropionic acid]",callus induction of cotyledonary segments,[1]; concentrations tested up to 20 uM,not effective
same,% Injury 20-40% (number of individuals),[2]; [8],0
same,% Injury <20% (number of individuals),[2]; [8],0
same,% Injury >40% (number of individuals),[2]; [8],8
same,% Injury Ave,[2]; [8],63%
same,% Injury 20-40% (number of individuals),[2]; [9],0
same,% Injury <20% (number of individuals),[2]; [9],0
same,% Injury >40% (number of individuals),[2]; [9],8
same,% Injury Ave,[2]; [9],85%
same,% Injury 20-40% (number of individuals),[2]; [10],0
same,% Injury <20% (number of individuals),[2]; [10],0
same,% Injury >40% (number of individuals),[2]; [10],8
same,% Injury Ave,[2]; [10],96%
same,% Injury 20-40% (number of individuals),[2]; [11],0
same,% Injury <20% (number of individuals),[2]; [11],0
same,% Injury >40% (number of individuals),[2]; [11],8
same,% Injury Ave,[2]; [11],98%
Nc1c(Cl)c(F)nc(OCC(=O)O)c1Cl [Fluroxypyr],Ave % Injury 14DAT,[3]; 280 g ae/ha foliar,0%
same,Ave % Injury 14DAT,[3]; 560 g ae/ha foliar,2%
same,Ave % Injury 14DAT,[3]; 1120 g ae/ha foliar,3%
same,Ave % Injury 14DAT,[3]; 2240 g ae/ha foliar,5%
